What follows are compounds tested against HCV RNA-dependent RNA polymerase (NS5B) (Hepatitis C virus genotype 1b (isolate BK) (HCV), UniProt P26663) (assay: RNA-Dependent RNA HCV NS5B (polymerase) Assay and IC50 Determination). Settings: purified HCV NS5B polymerase, polyA:U16 substrate, 32P-UTP incorporation; read-out: IC50.
Chain of HCV RNA-dependent RNA polymerase (NS5B) (P26663 2420-3010): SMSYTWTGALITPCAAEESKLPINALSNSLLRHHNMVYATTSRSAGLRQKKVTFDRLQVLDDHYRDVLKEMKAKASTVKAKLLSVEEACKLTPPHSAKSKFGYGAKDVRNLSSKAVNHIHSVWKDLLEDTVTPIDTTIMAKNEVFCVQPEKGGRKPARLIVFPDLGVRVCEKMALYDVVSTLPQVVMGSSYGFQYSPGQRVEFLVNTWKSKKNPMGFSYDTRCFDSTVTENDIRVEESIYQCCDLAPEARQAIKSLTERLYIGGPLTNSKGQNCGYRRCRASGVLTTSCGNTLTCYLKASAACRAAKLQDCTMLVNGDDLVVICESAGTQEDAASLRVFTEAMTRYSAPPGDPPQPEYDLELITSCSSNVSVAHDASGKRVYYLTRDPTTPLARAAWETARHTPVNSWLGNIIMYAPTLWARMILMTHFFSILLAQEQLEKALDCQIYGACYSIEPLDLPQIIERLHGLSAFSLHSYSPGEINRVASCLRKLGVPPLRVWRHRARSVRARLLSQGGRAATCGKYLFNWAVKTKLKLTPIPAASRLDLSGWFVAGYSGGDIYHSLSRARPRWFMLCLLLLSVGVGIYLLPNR
Format: biochemical
How it was run: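 Purified NS5B was incubated with 0.5 uM polyA:U16, 10 μM UTP plus ^32P-UTP in 50 mM Hepes-KOH pH 7.5, 5 mM MgCl2, 5 mM DTT, 2% glycerol and 0.01% Triton X-100. Inhibitor reactions ran 60 min at 37° C, and radiolabelled RNA product was quantified after filter capture. IC50 values were obtained from concentration series.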
`CNC(=O)c1c(-c2ccc(F)cc2)oc2cc(N(CCOCCOCCCc3ccccc3C(=O)O)S(C)(=O)=O)c(C3CC3)cc12` [Compound 12-7A, 2-{3-[2-(2-{[5-Cyclopropyl-2-(4-fluoro-phenyl)-3-methylcarbamoyl-benzofuran-6-yl]-methanesulfonyl-amino}-ethoxy)-ethoxy]-propyl}-benzoic Acid] was tested, and the IC50 was less than 100 nM.
With `CCOC(=O)c1ccc(COCCOCCN(c2cc3oc(-c4ccc(F)cc4)c(C(=O)NC)c3cc2C2CC2)S(C)(=O)=O)c2ccccc12` [Compound 20-7, 4-[2-(2-{[5-Cyclopropyl-2-(4-fluoro-phenyl)-3-methylcarbamoyl-benzofuran-6-yl]-methanesulfonyl-amino}-ethoxy)-ethoxymethyl]-naphthalene-1-carboxylic Acid Ethyl Ester] the IC50 was 100 to 1000 nM.
`CNC(=O)c1c(-c2ccc(F)cc2)oc2cc(N(CCOCCOCc3ccc(F)c(C(=O)NO)c3)S(C)(=O)=O)c(C3CC3)cc12` [Compound 17A-8B, 5-Cyclopropyl-6-({2-[2-(4-fluoro-3-hydroxycarbamoyl-benzyloxy)-ethoxy]-ethyl}-methanesulfonyl-amino)-2-(4-fluoro-phenyl)-benzofuran-3-carboxylic Acid Methylamide] showed an IC50 greater than 1000 nM.
In the case of `CNC(=O)c1c(-c2ccc(F)cc2)oc2cc(N(CCOCCOCc3ccc(C(=O)O)c([N+](=O)[O-])c3)S(C)(=O)=O)c(C3CC3)cc12` [Compound 29-8, 4-[2-(2-{[5-Cyclopropyl-2-(4-fluoro-phenyl)-3-methylcarbamoyl-benzofuran-6-yl]-methanesulfonyl-amino}-ethoxy)-ethoxymethyl]-2-nitro-benzoic Acid], the IC50 is reported as 100 to 1000 nM.
In the case of `CCOC(=O)COC(=O)c1ccc(COCCOCCN(c2cc3oc(-c4ccc(F)cc4)c(C(=O)NC)c3cc2C2CC2)S(C)(=O)=O)cc1` [Compound 06-8B8, 4-[2-(2-{[5-Cyclopropyl-2-(4-fluoro-phenyl)-3-methylcarbamoyl-benzofuran-6-yl]-methanesulfonyl-amino}-ethoxy)-ethoxymethyl]-benzoic Acid Ethoxycarbonylmethyl Ester], the IC50 is reported as 100 to 1000 nM.
`CNC(=O)c1c(-c2ccc(F)cc2)oc2cc(N(CC(=O)NCC(=O)NCCCCC(=O)O)S(C)(=O)=O)c(C3CC3)cc12` [Compound 10-4A, 5-[2-(2-{[5-Cyclopropyl-2-(4-fluoro-phenyl)-3-methylcarbamoyl-benzofuran-6-yl]-methanesulfonyl-amino}-acetylamino)-acetylamino]-pentanoic Acid] gave an IC50 greater than 1000 nM.
`CNC(=O)c1c(-c2ccc(F)cc2)oc2cc(N(CCOCCCCOc3cccc(C(=O)CC(=O)C(=O)O)c3)S(C)(=O)=O)c(C3CC3)cc12` [Compound 30-9, 4-{3-[4-(2-{[5-Cyclopropyl-2-(4-fluoro-phenyl)-3-methylcarbamoyl-benzofuran-6-yl]-methanesulfonyl-amino}-ethoxy)-butoxy]-phenyl}-2,4-dioxo-butyric acid] gave an IC50 greater than 1000 nM.
`CNC(=O)c1c(-c2ccc(F)cc2)oc2cc(N(CC(=O)N(C)CC(=O)NCc3cccc(C(=O)C=C(O)C(=O)O)c3)S(C)(=O)=O)c(C3CC3)cc12` [Compound 09-14B, 4-[3-({2-[(2-{[5-Cyclopropyl-2-(4-fluoro-phenyl)-3-methylcarbamoyl-benzofuran-6-yl]-methanesulfonyl-amino}-acetyl)-methyl-amino]-acetylamino}-methyl)-phenyl]-2-hydroxy-4-oxo-but-2-enoic acid] showed an IC50 greater than 1000 nM.
For `CNC(=O)c1c(-c2ccc(F)cc2)oc2cc(N(CCOCCOCc3ccc(C(=O)OC)cc3C)S(C)(=O)=O)c(C3CC3)cc12` [Compound 18-9B, 4-[2-(2-{[5-Cyclopropyl-2-(4-fluoro-phenyl)-3-methylcarbamoyl-benzofuran-6-yl]-methanesulfonyl-amino}-ethoxy)-ethoxymethyl]-3-methyl-benzoic Acid Methyl Ester], the IC50 was greater than 1000 nM.
With `CNC(=O)c1c(-c2ccc(F)cc2)oc2cc(N(CCOCCOCCOC(C)(C)C(=O)OC(C)(C)C)S(C)(=O)=O)c(C3CC3)cc12` [Compound 26-6B, 2-{2-[2-(2-{[5-Cyclopropyl-2-(4-fluoro-phenyl)-3-methylcarbamoyl-benzofuran-6-yl]-methanesulfonyl-amino}-ethoxy)-ethoxy]-ethoxy}-2-methyl-propionic Acid Tert-butyl Ester] the IC50 was greater than 1000 nM.
Work on `CNC(=O)c1c(-c2ccc(F)cc2)oc2cc(N(CCOCCSC(C)=O)S(C)(=O)=O)c(C3CC3)cc12` [Compound 21-5, Thioacetic Acid S-[2-(2-{[5-cyclopropyl-2-(4-fluoro-phenyl)-3-methylcarbamoyl-benzofuran-6-yl]-methanesulfonyl-amino}-ethoxy)-ethyl] Ester] yielded an IC50 of less than 100 nM.
`CNC(=O)c1c(-c2ccc(F)cc2)oc2cc(N(CC(=O)NCC(=O)NCc3cccc(C(C)=O)c3)S(C)(=O)=O)c(C3CC3)cc12` [Compound 30-6, 6-[({[(3-Acetyl-benzylcarbamoyl)-methyl]-carbamoyl}-methyl)-methanesulfonyl-amino]-5-cyclopropyl-2-(4-fluoro-phenyl)-benzofuran-3-carboxylic acid methylamide] gave an IC50 greater than 1000 nM.
Work on `CNC(=O)c1c(-c2ccc(F)cc2)oc2cc(N(CCOCCCCc3ccc(C(=O)O)cc3)S(C)(=O)=O)c(C3CC3)cc12` [Compound 13-8A, 4-[4-(2-{[5-Cyclopropyl-2-(4-fluoro-phenyl)-3-methylcarbamoyl-benzofuran-6-yl]-methanesulfonyl-amino}-ethoxy)-butyl]-benzoic Acid] yielded an IC50 of 100 to 1000 nM.
`CNC(=O)c1c(-c2ccc(F)cc2)oc2cc(N(CCOCCOCCOC(C)(C)C(=O)O)S(C)(=O)=O)c(C3CC3)cc12` [Compound 26-7B, 2-{2-[2-(2-{[5-Cyclopropyl-2-(4-fluoro-phenyl)-3-methylcarbamoyl-benzofuran-6-yl]-methanesulfonyl-amino}-ethoxy)-ethoxy]-ethoxy}-2-methyl-propionic Acid] was tested, and the IC50 was 100 to 1000 nM.
Compound `CNC(=O)c1c(-c2ccc(F)cc2)oc2cc(N(CC(=O)NC3(C(=O)NCc4cccc(C(=O)C=C(O)C(=O)O)c4)CC3)S(C)(=O)=O)c(C3CC3)cc12` [Compound 09-14D, 4-[3-({[1-(2-{[5-Cyclopropyl-2-(4-fluoro-phenyl)-3-methylcarbamoyl-benzofuran-6-yl]-methanesulfonyl-amino}-acetylamino)-cyclopropanecarbonyl]-amino}-methyl)-phenyl]-2-hydroxy-4-oxo-but-2-enoic Acid] has an IC50 greater than 1000 nM.
`CNC(=O)c1c(-c2ccc(F)cc2)oc2cc(N(CCOCCOCc3ccnc(Cl)c3)S(C)(=O)=O)c(C3CC3)cc12` [Compound 19-8A, 6-({2-[2-(2-Chloro-pyridin-4-ylmethoxy)-ethoxy]-ethyl}-methanesulfonyl-amino)-5-cyclopropyl-2-(4-fluoro-phenyl)-benzofuran-3-carboxylic Acid Methylamide] was tested, and the IC50 was less than 100 nM.
`CCOC(=O)/C(O)=C/C(=O)c1cccc(COCCOCCOCCOCCN(c2cc3oc(-c4ccc(F)cc4)c(C(=O)NC)c3cc2C2CC2)S(C)(=O)=O)c1` [Compound 02-9C, 4-[3-(2-{2-[2-(2-{[5-Cyclopropyl-2-(4-fluoro-phenyl)-3-methylcarbamoyl-benzofuran-6-yl]-methanesulfonyl-amino}-ethoxy)-ethoxy]-ethoxy}-ethoxymethyl)-phenyl]-2-hydroxy-4-oxo-but-2-enoic Acid Ethyl Ester] showed an IC50 greater than 1000 nM.
`CNC(=O)c1c(-c2ccc(F)cc2)oc2cc(N(CCOCCOCc3ccc(C(=O)OCSC)cc3)S(C)(=O)=O)c(C3CC3)cc12` [Compound 06-8B6, 4-[2-(2-{[5-Cyclopropyl-2-(4-fluoro-phenyl)-3-methylcarbamoyl-benzofuran-6-yl]-methanesulfonyl-amino}-ethoxy)-ethoxymethyl]-benzoic Acid Methylsulfanylmethyl Ester] gave an IC50 of 100 to 1000 nM.
Work on `CNC(=O)c1c(-c2ccc(F)cc2)oc2cc(N(CCCCCOCCCC(C)C(=O)O)S(C)(=O)=O)c(C3CC3)cc12` (stereo not drawn) [Compound 28-8B, 5-(5-{[5-Cyclopropyl-2-(4-fluoro-phenyl)-3-methylcarbamoyl-benzofuran-6-yl]-methanesulfonyl-amino}-pentyloxy)-2-methyl-pentanoic Acid] yielded an IC50 of less than 100 nM.
Work on `CNC(=O)c1c(-c2ccc(F)cc2)oc2cc(N(CCOCCOCCCc3cccc(C(=O)CC(=O)C(=O)O)c3)S(C)(=O)=O)c(C3CC3)cc12` [Compound 30-8, 4-(3-{3-[2-(2-{[5-Cyclopropyl-2-(4-fluoro-phenyl)-3-methylcarbamoyl-benzofuran-6-yl]-methanesulfonyl-amino}-ethoxy)-ethoxy]-propyl}-phenyl)-2,4-dioxo-butyric acid] yielded an IC50 greater than 1000 nM.
With `CNC(=O)c1c(-c2ccc(F)cc2)oc2cc(N(CCOCCOCc3ccc(C(=O)O)cc3C)S(C)(=O)=O)c(C3CC3)cc12` [Compound 18-10B, 4-[2-(2-{[5-Cyclopropyl-2-(4-fluoro-phenyl)-3-methylcarbamoyl-benzofuran-6-yl]-methanesulfonyl-amino}-ethoxy)-ethoxymethyl]-3-methyl-benzoic Acid] the IC50 was less than 100 nM.
Compound `CNC(=O)c1c(-c2ccc(F)cc2)oc2cc(N(CCOCCOCCc3ccccc3C(=O)O)S(C)(=O)=O)c(C3CC3)cc12` [Compound 11-6A, 2-{2-[2-(2-{[5-Cyclopropyl-2-(4-fluoro-phenyl)-3-methylcarbamoyl-benzofuran-6-yl]-methanesulfonyl-amino}-ethoxy)-ethoxy]-ethyl}-benzoic Acid] has an IC50 of less than 100 nM.
`CNC(=O)c1c(-c2ccc(F)cc2)oc2cc(N(CCCCCOCCCCC(=O)O)S(C)(=O)=O)c(C3CC3)cc12` [Compound 28-8A, 5-((5-(N-(5-cyclopropyl-2-(4-fluorophenyl)-3-(methylcarbamoyl)benzofuran-6-yl)-methylsulfonamido)-pentyl)-oxy)-pentanoic Acid] gave an IC50 of less than 100 nM.
Work on `CNC(=O)c1c(-c2ccc(F)cc2)oc2cc(N(CCOCCOCCCc3cccc(C(=O)O)c3)S(C)(=O)=O)c(C3CC3)cc12` [Compound 12-7B, 3-{3-[2-(2-{[5-Cyclopropyl-2-(4-fluoro-phenyl)-3-methylcarbamoyl-benzofuran-6-yl]-methanesulfonyl-amino}-ethoxy)-ethoxy]-propyl}-benzoic Acid] yielded an IC50 of less than 100 nM.
